Measured values published in publication doi:10.1101/2022.01.01.474692v1 (bioRxiv, 2022).
Where no end group is shown, it is not given here.

Assay: Solubility and behaviour in water
Assay type: physicochemical

behaviour of solution in pure water (solubilised in pure water, pH not lowered): tends to spontaneously aggregate | solubility in water (water, no solvent pre-treatment, solution clear and transparent): freely soluble in water
Substance: GNNQQNY [GNNQQNY]
